From the CheMixHub ionic liquid set

Test: xn = mol fraction of the nth substance listed

CC[n+]1ccn(C)c1.O=S(=O)([O-])C(F)(F)F + CCC(C)O
101 kPa
Conditions | viscosity [mPa·s]
298.15 K, x1 = 0.7986 | 30.77
298.15 K, x1 = 1 | 45.67
303.15 K, x1 = 0.3938 | 6.96
303.15 K, x1 = 0.4988 | 9.31
303.15 K, x1 = 0.5952 | 13.31
303.15 K, x1 = 0.7986 | 26.05
308.15 K, x1 = 0.3938 | 6.16
308.15 K, x1 = 0.903 | 28.15
313.15 K, x1 = 0.1945 | 3.63
313.15 K, x1 = 0.4988 | 7.33
313.15 K, x1 = 0.5952 | 10.28
313.15 K, x1 = 0.6907 | 14.61
313.15 K, x1 = 1 | 27.68
318.15 K, x1 = 0.4988 | 6.57
318.15 K, x1 = 0.903 | 20.96
323.15 K, x1 = 0.6907 | 11.38
323.15 K, x1 = 0.903 | 18.3

CCCCCCCCCCCCCC[P+](CCCCCC)(CCCCCC)CCCCCC.N#C[N-]C#N + CCCCCCCCCCCC
101 kPa
Conditions | viscosity [mPa·s]
303.15 K, x1 = 1 | 328
308.15 K, x1 = 0.5534 | 90
313.15 K, x1 = 0.736 | 112
323.15 K, x1 = 0.5534 | 47.4
323.15 K, x1 = 0.736 | 72.7
323.15 K, x1 = 1 | 123
328.15 K, x1 = 0.5534 | 39.2
328.15 K, x1 = 0.736 | 60
343.15 K, x1 = 0.5534 | 24.2
353.15 K, x1 = 1 | 41

CCCCC[N+](CCCCC)(CCCCC)CCCCC.[Br-] + CCCCCCCCCCCCOS(=O)(=O)[O-].[Na+] + O
viscosity [mPa·s], 100 kPa
Conditions | x2 = 1.81e-06, x1 = 0.0001802 | x2 = 3.62e-06, x1 = 0.0001802 | x2 = 5.43e-06, x1 = 0.0001802 | x2 = 7.23e-06, x1 = 0.0001802 | x2 = 9.04e-06, x1 = 0.0001802 | x2 = 1.085e-05, x1 = 0.0001802 | x2 = 1.266e-05, x1 = 0.0001802 | x2 = 1.447e-05, x1 = 0.0001802 | x2 = 1.628e-05, x1 = 0.0001802 | x2 = 1.808e-05, x1 = 0.0001802
293.15 K | 1.024 | 1.026 | 1.027 | 1.028 | 1.028 | 1.029 | 1.029 | 1.029 | 1.03 | 1.03
298.15 K | 0.914 | 0.916 | 0.917 | 0.917 | 0.919 | 0.92 | 0.921 | 0.921 | 0.922 | 0.922
303.15 K | 0.8 | 0.801 | 0.802 | 0.803 | 0.803 | 0.803 | 0.803 | 0.803 | 0.804 | 0.805
308.15 K | 0.723 | 0.723 | 0.724 | 0.724 | 0.724 | 0.724 | 0.725 | 0.725 | 0.726 | 0.726
313.15 K | 0.658 | 0.659 | 0.66 | 0.66 | 0.661 | 0.661 | 0.661 | 0.661 | 0.662 | 0.662
318.15 K | 0.604 | 0.605 | 0.605 | 0.605 | 0.606 | 0.606 | 0.606 | 0.606 | 0.606 | 0.606
